In patent US20260306640A1, “TECHNOLOGIES TARGETING CELL STATES” (Auron Therapeutics, Inc., priority 2023, published 2026):

Legend:
Format in all cases: cell-based
[1] = test system: histone acetylation; experiment: Western blot of histone acetylation in acute myeloid leukemia MOLM-13 cells, 48 h; conditions: FIG. 2 (A)
Method: (§1) FIG. 2. Provided compounds can provide various activities. (A): Provided technologies can reduce KAT2A and KAT2B levels and histone acetylation levels. […] Cell count data after 8 days of treatment with compound 22 relative to DMSO control are presented as examples to confirm inhibition. […] (C): Provided technologies can modulate cell states and induce differentiation. […] EC50=0.3 nM.

[2] = test system: CD86; experiment: CD86 by flow cytometry (monocytic differentiation), MOLM-13 cells, 48 hours; conditions: FIG. 2 (C)
Method: as §1

[3] = biological target: T1, KAT2B (Homo sapiens, UniProt Q92831); experiment: Western blot of KAT2B level in neuroendocrine prostate cancer LASCPC-01 cells, 24 hours; parameters: degrader, Western blot; conditions: FIG. 3 (A)
Method: (§2) FIG. 3. Provided compounds can provide various activities. (A): Provided technologies can reduce KAT2A and KAT2B levels and histone acetylation levels. […] Cell viability (Cell Titer Glo) data relative to DMSO control after 7 days of treatment with compound 22 are presented as examples to confirm inhibition. GI50=5 nM. (C): Provided technologies can modulate cell states and induce differentiation. […] (D): Provided technologies can reduce KAT2A and KAT2B levels and histone acetylation levels including in neuroendocrine prostate cancer primary patient organoid. […] Concentrations are nM. […] Cell viability data relative to DMSO control after 21 days of treatment with compound 22 are presented as examples to confirm inhibition. GI50=3 nM. (F): Provided technologies can modulate cell states and induce differentiation.

[4] = test system: histone acetylation (e.g., AcH3K9); experiment: Histone H3K9 acetylation (AcH3K9), Western Blot, MOLM-13 cells; conditions: FIG. 2
Method: In some embodiments, an assessment is performed using cells. In some embodiments, cells were treated with various compounds before assessing KAT2A and/or KAT2B levels, histone (e.g., H3K9) acetylation levels, cell states, growth, etc.
Western Blot: In some assessments, MOLM13, NCI-H1048, LASCPC-01 and NEPC organoid cells were treated with compounds at certain concentrations for certain periods of time, and cell pellets were lysed by adding 1-part 4×laemmli Sample buffer (e.g., Bio-Rad Catalog #1610747) along with Mercaptoethanol (e.g., Bio-Rad Catalog #1610710) according to manufacturer's instructions, and 1-part RIPA buffer with 2×protease and phosphatase inhibitor. The samples were sonicated 30% amplitude, 35 seconds on and 35 seconds off for 1 cycle and boiled at 95° C. for 5 minutes. 30-35 μL of samples were loaded on a 4-15% Criterion™ TGX Stain-Free™ Protein Gel (Bio-rad, 5678084). In some assessments, NCI-H1048 flash frozen tumor pieces were resuspended in RIPA buffer and homogenized on TissueLyser II with steel beads at 30 Hz for 3 minutes. Samples were then centrifuged at […] at 4° C. for 15 minutes. BCA protein determination was performed and samples normalized for 1.95 ug/uL. 19.5 uL were loaded and run on similar gels as cell pellets. […]

[5] = biological target: T1, KAT2B; experiment: Western blot of KAT2B level in NCI-H1048 cells, 24 h; parameters: degrader, Western blot; conditions: various concentrations, FIG. 1 (B)
Method: FIG. 1. Provided compounds can provide various activities including inhibiting tumor growth in vivo. (A): Provided compounds can inhibit tumor growth in vivo. Nude Balb/c mice were inoculated with NCI-H1048 cells in Matrigel. Tumors were allowed to grow up to about 200 mm^3 and mice were then randomized into two groups. Mice were dosed intraperitoneally (i.p.) once per week with vehicle or 30 mg/kg compound 22. Tumor size was measured every three to four days and mice were sacrificed once vehicle tumors reached 2000 mm^3. Error bar is SEM. Dosing started at day 17 post tumor inoculation. (B): Provided technologies can reduce KAT2A and KAT2B levels and histone acetylation levels. […] Vehicle is DMSO. […] Cell count data relative to DMSO control after 8 days of treatment with compound 22 are presented as examples to confirm inhibition. GI50=6 nM. (D): Provided technologies can inhibit tumor growth in vivo. Nude balb/c mice inoculated with H1048 tumors were dosed intraperitoneally once per week (qw i.p.) with vehicle (HbCD) or compound 22. Average tumor volumes+/−SEM from 6 mice are represented. […] See also (A). […] Certain body weights relative to starting weight are presented as examples to confirm tolerability and safety. (F): Provided technologies can reduce KAT2A and KAT2B levels and histone acetylation levels in tumor in vivo. […]

[6] = biological target: KAT2A (Homo sapiens, UniProt Q92830); experiment: Western blot of KAT2A level in neuroendocrine prostate cancer LASCPC-01 cells, 24 hours; parameters: degrader, Western blot; conditions: FIG. 3 (A)
Method: as §2

T1 sequence (Q92831 whole entry): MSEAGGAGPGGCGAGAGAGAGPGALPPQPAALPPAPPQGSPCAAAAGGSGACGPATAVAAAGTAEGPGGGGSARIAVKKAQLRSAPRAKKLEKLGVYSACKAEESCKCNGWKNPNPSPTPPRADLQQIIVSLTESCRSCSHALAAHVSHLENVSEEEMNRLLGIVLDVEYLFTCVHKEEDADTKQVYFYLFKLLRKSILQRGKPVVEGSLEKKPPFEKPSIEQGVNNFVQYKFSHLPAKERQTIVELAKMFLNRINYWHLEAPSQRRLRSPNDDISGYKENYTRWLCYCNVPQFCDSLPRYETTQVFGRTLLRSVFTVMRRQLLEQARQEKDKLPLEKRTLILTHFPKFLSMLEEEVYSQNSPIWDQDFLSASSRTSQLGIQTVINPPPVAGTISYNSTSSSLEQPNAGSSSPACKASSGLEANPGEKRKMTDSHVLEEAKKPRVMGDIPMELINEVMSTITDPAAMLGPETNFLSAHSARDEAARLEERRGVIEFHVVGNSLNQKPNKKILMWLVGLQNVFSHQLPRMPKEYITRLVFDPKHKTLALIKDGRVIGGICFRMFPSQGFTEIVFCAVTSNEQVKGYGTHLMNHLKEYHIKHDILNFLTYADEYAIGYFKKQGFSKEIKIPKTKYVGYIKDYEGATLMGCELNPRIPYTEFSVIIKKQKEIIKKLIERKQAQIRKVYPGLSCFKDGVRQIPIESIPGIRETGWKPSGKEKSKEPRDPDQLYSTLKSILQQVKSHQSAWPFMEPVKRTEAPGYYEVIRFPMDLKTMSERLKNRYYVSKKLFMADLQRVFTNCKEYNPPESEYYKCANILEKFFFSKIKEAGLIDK
KAT2A, sequence (Q92830 whole entry): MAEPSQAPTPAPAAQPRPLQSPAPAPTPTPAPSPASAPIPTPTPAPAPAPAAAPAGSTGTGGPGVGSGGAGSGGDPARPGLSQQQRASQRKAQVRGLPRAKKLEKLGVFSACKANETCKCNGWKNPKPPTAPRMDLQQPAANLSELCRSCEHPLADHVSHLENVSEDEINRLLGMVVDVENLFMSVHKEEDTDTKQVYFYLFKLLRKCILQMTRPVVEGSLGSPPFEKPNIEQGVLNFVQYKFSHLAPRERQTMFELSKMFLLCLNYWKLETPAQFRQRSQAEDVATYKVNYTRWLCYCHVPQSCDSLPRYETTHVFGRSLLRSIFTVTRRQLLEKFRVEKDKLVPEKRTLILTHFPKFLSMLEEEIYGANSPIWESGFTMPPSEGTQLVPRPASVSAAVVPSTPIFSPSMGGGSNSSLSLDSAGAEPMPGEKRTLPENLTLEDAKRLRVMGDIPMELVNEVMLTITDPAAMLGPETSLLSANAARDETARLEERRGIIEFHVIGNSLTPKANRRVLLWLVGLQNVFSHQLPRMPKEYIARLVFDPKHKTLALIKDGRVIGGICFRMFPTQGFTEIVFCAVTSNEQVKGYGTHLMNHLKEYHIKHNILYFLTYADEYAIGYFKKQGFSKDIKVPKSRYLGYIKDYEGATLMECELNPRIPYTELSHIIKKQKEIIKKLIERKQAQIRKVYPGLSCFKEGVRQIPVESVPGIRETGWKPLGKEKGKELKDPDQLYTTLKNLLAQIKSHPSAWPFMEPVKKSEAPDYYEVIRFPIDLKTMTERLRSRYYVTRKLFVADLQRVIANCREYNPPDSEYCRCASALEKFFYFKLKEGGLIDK

- EC50 ([2]; Homo sapiens, flow cytometry at 48 hours): 0.3 nM
- reduction of KAT2B level [3]: confirm such reduction
- reduction of KAT2B level [5]: confirm such reduction
- reduction of KAT2A level [6]: confirm such reduction
Structure (SMILES): CN1C[C@H](Nc2cnn(C)c(=O)c2Br)C[C@H](c2ccc(C(=O)N3CCC(CN4CCN(c5ccc6c(c5)CN(C5CCC(=O)NC5=O)C6=O)CC4)CC3)cc2)C1 (stereo partly drawn) [Compound 22, 3-(5-(4-((1-(4-((3R,5R)-5-((5-bromo-1-methyl-6-oxo-1,6-dihydropyridazin-4-yl)amino)-1-methylpiperidin-3-yl)benzoyl)piperidin-4-yl)methyl)piperazin-1-yl)-1-oxoisoindolin-2-yl)piperidine-2,6-dione]
- reduction of histone acetylation level [1]: confirm such reduction
- monocytic differentiation ([2]; CD86 flow cytometry at 48 hours): monocytic differentiation was observed
- histone acetylation (e.g., AcH3K9) levels [4]: reduce histone acetylation (e.g., AcH3K9) levels
